Data published in US8242167B2, “Mannose derivatives for killing tumor cells” (University of Miami, priority 2006, dated 2012).

How the values were obtained:
[1] = test system: SKBR3 cells; assay: Growth inhibitory and cytotoxicity assay in SKBR3 cells under normoxia; format: cell-based, human
Method: Cytotoxicity assay and Rapid DNA Content Analysis. Cells were incubated for 24 hr at 37° C. in 5% CO2 at which time drug treatments began and were continued for 72 hr. At this time, attached cells were trypsinized and combined with their respective culture media followed by centrifugation at 400 g for 5 min. Pellets containing the cells were either resuspended in 1.5 ml of a medium/trypan blue mixture for cytotoxicity assays or propidium iodide/hypotonic citrate staining solution for determining the nuclear DNA content and cell cycle by a Coulter XL flow cytometer. A minimum of 10,000 cells were analyzed to generate a DNA distribution histogram.
(§1) Cytotoxicity assay. Cells were incubated for 24 hr at 37° C. in 5% CO2 at which time drug treatments began and continued for 72 hr. At this time, attached cells were trypsinized and combined with their respective culture media followed by centrifugation at 400 g for 5 min. The pellets were resuspended in 1 ml of Hanks solution and analyzed by Vi-Cell (Beckman Coulter, USA) cell viability analyzer.

[2] = test system: glycoproteins (ConA binding) in SKBR3 cells; assay: HRP-conjugated ConA blot of SKBR3 cell extracts; format: cell-based, human; settings: SKBR3, 48 hr, 8 mM sugar analog
Method: (§2) Western Blot analysis. Cells were plated at 10^4 cell cm^−2 and grown under drug treatment for the indicated times. At the end of the treatment period, cells were collected and lysed with 1% SDS in 80 mM Tris-HCL (ph 7.4) buffer supplemented with a proteinase inhibitor cocktail. DNA was fragmented by sonication and protein concentrations were measured by microBCA protein assay kit (Pierce, USA). Samples were mixed with 2× Laemmli sample buffer (Bio-Rad, USA) and run on a SDS-polyacrylamide gel. Gels were transferred to nitrocellulose membranes (Amersham, USA) and probed with anti-KDEL (Stressgen, Canada) (for Grp78 and Grp94); polyclonal anti-CHOP/[…] (Santa Cruz, USA), polyclonal anti-erbB2 (DAKO, USA). Following probing, membranes were washed and incubated with an HRP conjugated secondary antibody. Chemiluminesence was detected by exposure to film. Where indicated, membranes were stripped with Stripping Buffer (Pierce, USA) and reprobed with anti-actin (Sigma, USA) primary antibody. To analyze conconavalin A (ConA) binding, the membranes were incubated with 0.2 μg/ml HRP-conjugated ConA, and chemiluminescence was detected as described.

[3] = test system: erbB2; assay: Western blot of erbB2 in SKBR3 cells; format: cell-based, human
Method: as §2

[4] = test system: Grp78 and Grp94; assay: Western blot of Grp78 and Grp94 (unfolded protein response) in SKBR3 cells under normoxia; format: cell-based, human
Method: as §2

[5] = test system: Grp78 and Grp94; assay: Western blot of Grp78 and Grp94 in models of hypoxia A, B & C; format: cell-based
Method: as §2
Three in vitro models of hypoxia. We previously characterized three models of anaerobiosis as follows: Model A are tumor cells treated with 0.05 μg/ml of oligomycin (a mitochondrial inhibitor of ATP synthase); Model B are cells that are deficient in mitochondrial DNA and Model C are cells treated in an hypoxic (0.5% O^2) chamber (Reming Bioinstruments, Redfield, N.Y.).

[6] = test system: CHOP/GADD154; assay: Western blot of CHOP/GADD154 in SKBR3 cells; format: cell-based, human; settings: SKBR3, normoxia, 24 hrs; 8 mM sugar analog
Method: as §2

[7] = test system: tumor cell lines; assay: Toxicity survey of tumor cell lines under normoxic conditions; format: cell-based
Method: (§3) Cell types. The Δ^0 cells were isolated by treating osteosarcoma cell line 143B (wt) with ethidium bromide for prolonged periods, as previously described (9). Because the Δ^0 cells are uridine and pyruvate auxotrophs, they were grown in DMEM (GIBCO, USA) supplemented with 10% fetal calf serum, 50 μg/ml of uridine and 100 mM sodium pyruvate. The SKBR3 cell line was obtained from Dr. Joseph Rosenblatt's laboratory at the University of Miami. The pancreatic cancer cell lines 1420 and 1469, the ovarian cancer cell line SKOV3, the cervical cancer cell line HELA, and the osteosarcoma cell line 143B were purchased from ATCC. The non-small cell lung cancer and small cell lung cancer cell lines were derived from patients by Dr. Niramol Savaraj at the University of Miami. SKBR3 and SKOV3 cells were grown in McCoy's 5A medium; 1420, 1469 and 143B were grown in DMEM (GIBCO, USA); and HELA was grown in MEM (GIBCO, USA). The media was supplemented with 10% fetal bovine serum. All cells were grown under 5% CO2 and 37° C.
as §1

[8] = test system: 1420, pancreatic cancer; assay: Cytotoxicity under normoxia, 1420; format: cell-based, human; settings: column head gives the result: sensitive
Method: as §3, §1

[9] = test system: HELA, cervical cancer; assay: Cytotoxicity under normoxia, HELA; format: cell-based; settings: column head gives the result: sensitive
Method: as §3, with “37° C. Cytotoxicity assay. Cells were incubated for 24 hr at 37° C. in 5% CO2 at which time drug treatments began and continued for 72 hr. […] The pellets were resuspended in 1 ml of Hanks solution and analyzed by Vi-Cell (Beckman Coulter, USA) cell viability analyzer.” for “37° C.”

[10] = test system: S-1 & S-2, non-small cell lung cancer; assay: Cytotoxicity under normoxia, NSCLC; format: cell-based, human; settings: normoxic conditions
Method: as §3, with “37° C. Cytotoxicity assay. Cells were incubated for 24 hr at 37° C. in 5% CO2 at which time drug treatments began and continued for 72 hr. […] The pellets were resuspended in 1 ml of Hanks solution and analyzed by Vi-Cell (Beckman Coulter, USA) cell viability analyzer.” for “37° C.”

[11] = test system: TG98, brain cancer (glioblastoma); assay: Cytotoxicity under normoxia, TG98; format: cell-based; settings: column head gives the result: sensitive
Method: as §1

[12] = test system: SKOV3, ovarian cancer; assay: Cytotoxicity under normoxia, SKOV3; format: cell-based; settings: column head gives the result: resistant
Method: as §3, with “37° C. Cytotoxicity assay. Cells were incubated for 24 hr at 37° C. in 5% CO2 at which time drug treatments began and continued for 72 hr. […] The pellets were resuspended in 1 ml of Hanks solution and analyzed by Vi-Cell (Beckman Coulter, USA) cell viability analyzer.” for “37° C.”

[13] = test system: 1469, pancreatic cancer; assay: Cytotoxicity under normoxia, 1469; format: cell-based; settings: column head gives the result: resistant
Method: as §3, with “37° C. Cytotoxicity assay. Cells were incubated for 24 hr at 37° C. in 5% CO2 at which time drug treatments began and continued for 72 hr. […] The pellets were resuspended in 1 ml of Hanks solution and analyzed by Vi-Cell (Beckman Coulter, USA) cell viability analyzer.” for “37° C.”

[14] = test system: 143B, osteosarcoma; assay: Cytotoxicity under normoxia, 143B; format: cell-based, human; settings: column head gives the result: resistant
Method: as §3, with “37° C. Cytotoxicity assay. Cells were incubated for 24 hr at 37° C. in 5% CO2 at which time drug treatments began and continued for 72 hr. […] The pellets were resuspended in 1 ml of Hanks solution and analyzed by Vi-Cell (Beckman Coulter, USA) cell viability analyzer.” for “37° C.”

[15] = test system: MCF-7, breast cancer; assay: Cytotoxicity under normoxia, MCF-7; format: cell-based; settings: column head gives the result: resistant
Method: as §1

[16] = test system: HEPA-1; assay: Cytotoxicity under normoxia, HEPA-1; format: cell-based, rat; settings: column head gives the result: resistant
Method: as §1

[17] = test system: MDA-MB-231, breast cancer; assay: Cytotoxicity under normoxia, MDA-MB-231; format: cell-based; settings: column head gives the result: resistant
Method: as §1

[18] = test system: MDA-MB-468, breast cancer; assay: Cytotoxicity under normoxia, MDA-MB-468; format: cell-based; settings: column head gives the result: resistant
Method: as §1

[19] = test system: fowl plague virus; settings: chick embryo fibroblasts infected with fowl plague virus; cited from earlier work
[20] = test system: human tumor xenografts; settings: different human tumor xenografts; cited from earlier work
[21] = animal studies and preliminary Phase I results; cited from earlier work

O=CC[C@@H](O)[C@H](O)[C@H](O)CO [2-DG, 2-deoxy-D-glucose]
cells killed ([1]; SKBR3, 12 mM, 72 hrs, normoxic conditions): 60% | cytotoxicity measured by trypan blue exclusion ([1]; SKBR3, 72 hrs, normal oxygen conditions): toxic | 2-DG Sensitive Cell Lines (2-DG under normoxia) ([1]; column head gives the result: sensitive): SKBR3, breast cancer | rank order in growth inhibiting and killing SKBR3 cells ([1]; normoxia): 2-DG>2-FDM>>>2-FDG | ConA binding of glycoproteins [2]: decrease ConA binding | molecular weight of erbB2 [3]: decreased the molecular weight of erbB2 | expression of chaperones Grp78 and Grp94 ([4]; SKBR3, normoxia, 24 hrs, 8 mM sugar analog, tunicamycin 1 micro g/ml): both Grp78 and Grp94 are upregulated | up-regulation of GRP 78 and 94, dose dependence ([4]; select tumor cells, normoxic conditions): up-regulated by 2-DG and 2-FM in a dose-dependent manner | upregulation of the UPR (Grp78, Grp94) ([5]; hypoxia model C): both chaperones are upregulated | upregulation of the UPR (Grp78, Grp94) ([5]; hypoxia models A and B): no significant upregulation of the UPR | induction of GADD154/CHOP [6]: induced | tumor cell lines undergoing significant cell death ([7]; 6 mM, normal oxygen tension): 6 out of 15 | dose at which a select number of tumor cell lines are killed ([7]; normal oxygen tension): 4 mM | toxicity to select tumor cell types ([7]; normoxia): toxic to select tumor cell types growing under normoxia | 2-DG Sensitive Cell Lines (2-DG under normoxia) [8]: 1420, pancreatic cancer | 2-DG Sensitive Cell Lines (2-DG under normoxia) [9]: HELA, cervical cancer | toxicity to NSCLC [10]: toxic | 2-DG Sensitive Cell Lines (2-DG under normoxia) [11]: TG98, brain cancer (glioblastoma) | 2-DG Resistant Cell Lines (2-DG under normoxia) [12]: SKOV3, ovarian cancer | 2-DG Resistant Cell Lines (2-DG under normoxia) [13]: 1469, pancreatic cancer | 2-DG Resistant Cell Lines (2-DG under normoxia) [14]: 143B, osteosarcoma | 2-DG Resistant Cell Lines (2-DG under normoxia) [15]: MCF-7, breast cancer | 2-DG Resistant Cell Lines (2-DG under normoxia) [16]: HEPA-1, rat hepatoma | 2-DG Resistant Cell Lines (2-DG under normoxia) [17]: MDA-MB-231, breast cancer | 2-DG Resistant Cell Lines (2-DG under normoxia) [18]: MDA-MB-468, breast cancer | order of potency to inhibit viral glycoprotein synthesis [19]: 2-DG>2-FDM>2-FDG | effect on efficacy of standard chemotherapeutic agents [20]: increases the efficacy of standard chemotherapeutic agents | tolerability [21]: well-tolerated and relatively non-toxic to normal cells
